# Reference: US20100297692A1, “REACTION MEDIUM FOR DETECTING AND/OR IDENTTIFYING STAPHYLOCCOUS AUREUS” (BIOMERIEUX, priority 2007, published 2010)
# Key:
# [1] = test system: Enterococci; experiment: β-D-ribosidase substrates in Columbia agar, colored or fluorescent colonies; type: cell-based, Enterococcus spp
# Method: (§1) The media hereinafter were prepared in 200 ml of a Columbia agar base (Oxoid), in combination with the chromogenic β-D-ribosidase substrates. The various substrates and also the concentrations and the additives used in the media are described in Table 1 below:
# (§2) The β-D-ribosidase substrates are solubilized in DMSO and added to the media so as to obtain the concentrations indicated in Table 1.
# (§3) 191 bacterial strains were inoculated onto each of the media using a suspension at 0.5 MacFarland diluted to 1/1000. The dishes were incubated at 37° C. and then read.
# (§4) The media were distributed into Petri dishes, then inoculated with approximately 100 000 CFU, then incubated at 37° C. for 48 h. The colonies formed were examined visually after incubation times of 18, 24 and 48 hours.
# (§5) The stock collection of 191 strains comprised: […], 48 Staphylococcus spp, 61 Enterococcus spp and 3 alpha-hemolytic Streptococcus.
# [2] = test system: Coagulase-negative Staphylococci; experiment: as above; type: cell-based, Staphylococcus spp; conditions: for % of strains producing colored or fluorescent colonies: Coagulase-negative Staphylococci
# Method: as §1, §2, §3, §4, §5
# [3] = test system: Alpha-hemolytic streptococci; experiment: as above; type: cell-based, alpha-hemolytic Streptococcus
# Method: as §1, §2, §3, §4, §5
# [4] = test system: Coag neg; experiment: Catechol-β-D-riboside and X-β-D-riboside on a broad panel of Staphylococcus spp; type: cell-based; conditions: modified Chapman medium without NaCl, 60 mg/l substrate
# Method: (§6) Catechol-β-D-riboside: A GTS medium (bioMérieux) supplemented with 300 mg/l of catechol-β-D-riboside, then autoclaved, and with 500 mg/l of ammoniacal iron citrate was used and distributed into Petri dishes 55 mm in diameter.
# (§7) X-β-D-riboside: A modified Chapman medium, without NaCl, autoclaved and supplemented with 60 mg/l of X-β-D-riboside, was used and distributed into Petri dishes 55 mm in diameter.
# For the two media, the inoculation was carried out using precultures prepared for 24 h at 37° C. A suspension in physiological saline at 0.5 McF was prepared and then each strain was inoculated onto a dish using a 10 μl calibrated loop.
# The readings were carried out after 24 and 48 hours of incubation at 37° C.
# (§8) In total, […] were tested: 34 S. aureus, including 25 MRSAs, and 46 other species of Staphylococcus (including S. schleiferi; S. capitis; S. hyicus; S. intermedius; S. haemolyticus; S. auricularis; S. hominis; S. warneri; S. chromogenes; S. cohnii; S. epidermidis; S. sciuri; S. xylosus; S. saprophyticus).
# [5] = test system: S. aureus (MRSA); experiment: β-D-ribosidase substrates in Columbia agar, colored or fluorescent colonies; type: cell-based, Staphylococcus aureus
# Method: as §1, §2, §3, §4, §5
# [6] = test system: S. aureus (MSSA); experiment: as above; type: cell-based, Staphylococcus aureus
# Method: as §1, §2, §3, §4, §5
# [7] = test system: Micrococcus luteus; experiment: as above; type: cell-based
# Method: [The procedure below names another organism; the source lists this organism under the same test.] as §1, §2, §3, §4, §5
# [8] = test system: S aureus (MRSA and MSSA); experiment: Catechol-β-D-riboside and X-β-D-riboside on a broad panel of Staphylococcus spp; type: cell-based; conditions: modified Chapman medium without NaCl, 60 mg/l substrate
# Method: as §6, §7
# For the two media, the inoculation was carried out using precultures prepared for 24 h at 37° C. A suspension in physiological saline at 0.5 McF was prepared and then each strain was inoculated onto a dish using a 10 μl calibrated loop. […]
# as §8
compound,measurement,setting,value
5-Bromo-4-chloro-3-indoxyl-beta-D-riboside [X-β-riboside],% of strains producing colored or fluorescent colonies,"[1]; 80 mg/L, 18 h",2%
same,% of strains producing colored or fluorescent colonies,"[1]; 80 mg/L, 24 h",2%
same,% of strains producing colored or fluorescent colonies,"[1]; 80 mg/L, 48 h",2%
same,% of strains producing colored or fluorescent colonies,"[1]; 200 mg/L, 18 h",2%
same,% of strains producing colored or fluorescent colonies,"[1]; 200 mg/L, 24 h",2%
same,% of strains producing colored or fluorescent colonies,"[1]; 200 mg/L, 48 h",2%
same,% of strains producing colored or fluorescent colonies,"[2]; 80 mg/L, 18 h",3%
same,% of strains producing colored or fluorescent colonies,"[2]; 80 mg/L, 24 h",6%
same,% of strains producing colored or fluorescent colonies,"[2]; 80 mg/L, 48 h",6%
same,% of strains producing colored or fluorescent colonies,"[2]; 200 mg/L, 18 h",3%
same,% of strains producing colored or fluorescent colonies,"[2]; 200 mg/L, 24 h",3%
same,% of strains producing colored or fluorescent colonies,"[2]; 200 mg/L, 48 h",3%
same,false positives among the coagulase-negative staphylococci,"[2]; Columbia agar, 24 h of incubation, concentration not given",3%
same,% of strains producing colored or fluorescent colonies,"[3]; 80 mg/L, 18 h",0%
same,% of strains producing colored or fluorescent colonies,"[3]; 80 mg/L, 24 h",0%
same,% of strains producing colored or fluorescent colonies,"[3]; 80 mg/L, 48 h",0%
same,% of strains producing colored or fluorescent colonies,"[3]; 200 mg/L, 18 h",0%
same,% of strains producing colored or fluorescent colonies,"[3]; 200 mg/L, 24 h",0%
same,% of strains producing colored or fluorescent colonies,"[3]; 200 mg/L, 48 h",0%
same,"Number of strains producing a coloration/total number of strains, positive at 18 h",[4]; 18 h,7/46
same,"Number of strains producing a coloration/total number of strains, positive at 24 h",[4]; 24 h,12/46
same,"Number of strains producing a coloration/total number of strains, positive at 48 h",[4]; 48 h,14/46
same,% of strains producing colored or fluorescent colonies,"[5]; 80 mg/L, 18 h",84%
same,% of strains producing colored or fluorescent colonies,"[5]; 80 mg/L, 24 h",92%
same,% of strains producing colored or fluorescent colonies,"[5]; 80 mg/L, 48 h",97%
same,% of strains producing colored or fluorescent colonies,"[5]; 200 mg/L, 18 h",82%
same,% of strains producing colored or fluorescent colonies,"[5]; 200 mg/L, 24 h",87%
same,% of strains producing colored or fluorescent colonies,"[5]; 200 mg/L, 48 h",95%
same,% of strains producing colored or fluorescent colonies,"[6]; 80 mg/L, 18 h",64%
same,% of strains producing colored or fluorescent colonies,"[6]; 80 mg/L, 24 h",100%
same,% of strains producing colored or fluorescent colonies,"[6]; 80 mg/L, 48 h",100%
same,% of strains producing colored or fluorescent colonies,"[6]; 200 mg/L, 18 h",64%
same,% of strains producing colored or fluorescent colonies,"[6]; 200 mg/L, 24 h",64%
same,% of strains producing colored or fluorescent colonies,"[6]; 200 mg/L, 48 h",100%
same,% of strains producing colored or fluorescent colonies,"[7]; 80 mg/L, 18 h",0%
same,% of strains producing colored or fluorescent colonies,"[7]; 80 mg/L, 24 h",0%
same,% of strains producing colored or fluorescent colonies,"[7]; 80 mg/L, 48 h",0%
same,% of strains producing colored or fluorescent colonies,"[7]; 200 mg/L, 18 h",0%
same,% of strains producing colored or fluorescent colonies,"[7]; 200 mg/L, 24 h",0%
same,% of strains producing colored or fluorescent colonies,"[7]; 200 mg/L, 48 h",0%
same,"Number of strains producing a coloration/total number of strains, positive at 18 h",[8]; 18 h,17/34
same,"Number of strains producing a coloration/total number of strains, positive at 24 h",[8]; 24 h,29/34
same,"Number of strains producing a coloration/total number of strains, positive at 48 h",[8]; 48 h,33/34
"Cc1cc(=O)oc2cc(O[C@@H]3O[C@H](CO)[C@@H](O)[C@H]3O)ccc12 [4-MU-β-riboside, 4-Methylumbelliferyl-beta-D-riboside]",% of strains producing colored or fluorescent colonies,"[1]; 50 mg/L, 18 h",57%
same,% of strains producing colored or fluorescent colonies,"[1]; 50 mg/L, 24 h",57%
same,% of strains producing colored or fluorescent colonies,"[1]; 50 mg/L, 48 h",49%
same,% of strains producing colored or fluorescent colonies,"[2]; 50 mg/L, 18 h",82%
same,% of strains producing colored or fluorescent colonies,"[2]; 50 mg/L, 24 h",82%
same,% of strains producing colored or fluorescent colonies,"[2]; 50 mg/L, 48 h",82%
same,% of strains producing colored or fluorescent colonies,"[3]; 50 mg/L, 18 h",0%
same,% of strains producing colored or fluorescent colonies,"[3]; 50 mg/L, 24 h",0%
same,% of strains producing colored or fluorescent colonies,"[3]; 50 mg/L, 48 h",0%
same,% of strains producing colored or fluorescent colonies,"[5]; 50 mg/L, 18 h",97%
same,% of strains producing colored or fluorescent colonies,"[5]; 50 mg/L, 24 h",97%
same,% of strains producing colored or fluorescent colonies,"[5]; 50 mg/L, 48 h",97%
same,% of strains producing colored or fluorescent colonies,"[6]; 50 mg/L, 18 h",100%
same,% of strains producing colored or fluorescent colonies,"[6]; 50 mg/L, 24 h",100%
same,% of strains producing colored or fluorescent colonies,"[6]; 50 mg/L, 48 h",100%
same,% of strains producing colored or fluorescent colonies,"[7]; 50 mg/L, 18 h",0%
same,% of strains producing colored or fluorescent colonies,"[7]; 50 mg/L, 24 h",0%
same,% of strains producing colored or fluorescent colonies,"[7]; 50 mg/L, 48 h",0%
5-Bromo-6-chloro-3-indoxyl-beta-D-riboside [Magenta-β-riboside],% of strains producing colored or fluorescent colonies,"[1]; 100 mg/L, 18 h",0%
same,% of strains producing colored or fluorescent colonies,"[1]; 100 mg/L, 24 h",2%
same,% of strains producing colored or fluorescent colonies,"[1]; 100 mg/L, 48 h",2%
same,% of strains producing colored or fluorescent colonies,"[2]; 100 mg/L, 18 h",0%
same,% of strains producing colored or fluorescent colonies,"[2]; 100 mg/L, 24 h",3%
same,% of strains producing colored or fluorescent colonies,"[2]; 100 mg/L, 48 h",6%
same,% of strains producing colored or fluorescent colonies,"[3]; 100 mg/L, 18 h",0%
same,% of strains producing colored or fluorescent colonies,"[3]; 100 mg/L, 24 h",0%
same,% of strains producing colored or fluorescent colonies,"[3]; 100 mg/L, 48 h",0%
same,% of strains producing colored or fluorescent colonies,"[5]; 100 mg/L, 18 h",71%
same,% of strains producing colored or fluorescent colonies,"[5]; 100 mg/L, 24 h",85%
same,% of strains producing colored or fluorescent colonies,"[5]; 100 mg/L, 48 h",95%
same,% of strains producing colored or fluorescent colonies,"[6]; 100 mg/L, 18 h",64%
same,% of strains producing colored or fluorescent colonies,"[6]; 100 mg/L, 24 h",64%
same,% of strains producing colored or fluorescent colonies,"[6]; 100 mg/L, 48 h",100%
same,% of strains producing colored or fluorescent colonies,"[7]; 100 mg/L, 18 h",0%
same,% of strains producing colored or fluorescent colonies,"[7]; 100 mg/L, 24 h",0%
same,% of strains producing colored or fluorescent colonies,"[7]; 100 mg/L, 48 h",0%
